ChEMBL document CHEMBL5576068, “Design, synthesis, and biological antitumor evaluation of tetrahydroisoquinoline derivatives” (Bioorg Med Chem Lett, 2024)

What was measured:
HepG2 [1] = assay: Cytotoxicity against human HepG2 cells assessed as cell inhibition rate at 40 uM by CCK8 assay relative to control; type: functional
A-375 [2] = assay: Cytotoxicity against human A-375 cells assessed as cell inhibition rate at 40 uM by CCK8 assay relative to control; type: functional
HCT-116 [3] = assay: Cytotoxicity against human HCT-116 cells assessed as cell inhibition rate at 40 uM by CCK8 assay relative to control; type: functional
MDA-MB-231 [4] = assay: Cytotoxicity against human MDA-MB-231 cells assessed as cell inhibition rate at 40 uM by CCK8 assay relative to control; type: functional
MDA-MB-231 [5] = assay: Cytotoxicity against human MDA-MB-231 cells measured for 48 hrs; type: functional, cell-based; conditions: MDA-MB-231, 48 h
HepG2 [6] = assay: Cytotoxicity against human HepG2 cells measured for 48 hrs; type: functional, cell-based; conditions: HepG2, 48 h
A-375 [7] = assay: Cytotoxicity against human A-375 cells measured for 48 hrs; type: functional, cell-based; conditions: A-375, 48 h
HCT-116 [8] = assay: Cytotoxicity against human HCT-116 cells measured for 48 hrs; type: functional, cell-based; conditions: HCT-116, 48 h

SMILES | inhibition at 40 µM (HepG2 [1]) [%] | inhibition at 40 µM (A-375 [2]) [%] | inhibition at 40 µM (HCT-116 [3]) [%] | inhibition at 40 µM (MDA-MB-231 [4]) [%] | IC50 (MDA-MB-231 [5]) [µM] | IC50 (HepG2 [6]) [µM] | IC50 (A-375 [7]) [µM] | IC50 (HCT-116 [8]) [µM]
COc1cc2c(cc1OC)CN(C)CC2 | 20.6 | 27.4 | 25.2 | 30.7 |  |  |  | 
CN1CCc2cc3c(cc2C1)OCO3 | 26.8 | 22.5 | 18.2 | 14.5 |  |  |  | 
COc1cc2c(cc1OCc1ccccc1)CN(C)CC2 | 16.3 | 14.7 | 32.9 | 30.2 |  |  |  | 
COc1cc2c(cc1OCc1ccccc1)C[N+](C)(Cc1ccc(Oc3ccc(-c4ccc(C#N)cc4)cc3)nc1)CC2 (centres undefined) |  |  |  |  | > 20 | 3.8 | 9.7 | 7.5
COc1cc2c(cc1OCc1ccccc1)C[N+](C)(Cc1ccc([N+](=O)[O-])nc1)CC2 (centres undefined) | 22.6 | 16.1 | 26.6 | 10.1 |  |  |  | 
C[N+]1(Cc2ccc(Br)nc2)CCc2cc3c(cc2C1)OCO3 (centres undefined) | 19.8 | 9.69 | 29.2 | 23.2 |  |  |  | 
COc1cc2c(cc1OCc1ccccc1)C[N+](C)(Cc1ccc(Oc3ccc(Oc4ccccc4)cc3)nc1)CC2 (centres undefined) |  |  |  |  | 12.6 | 12.6 | 7.6 | 11.6
COc1cc2c(cc1OCc1ccccc1)C[N+](C)(Cc1ccc(Oc3ccc(Oc4ccc(C(F)(F)F)cc4)cc3)nc1)CC2 (centres undefined) |  |  |  |  | 9.8 | 4.1 | 6.1 | 4.1
CCCCC[C@H]1CC[C@H](c2ccc(Oc3ccc(C[N+]4(C)CCc5cc(OC)c(OCc6ccccc6)cc5C4)cn3)cc2)CC1 (some centres undefined) |  |  |  |  | 11.4 | 11.6 | 8.7 | 9
COc1cc2c(cc1OCc1ccccc1)C[N+](C)(Cc1ccc(Oc3ccc(OC(C)C)cc3)nc1)CC2 (centres undefined) |  |  |  |  | > 20 | 9.67 | 13.5 | 19.3
COc1cc2c(cc1OCc1ccccc1)C[N+](C)(Cc1ccc(Nc3ccccc3[N+](=O)[O-])nc1)CC2 (centres undefined) |  |  |  |  | 10 | 4.8 | 7.6 | 4.6
COc1cc2c(cc1OCc1ccccc1)C[N+](C)(Cc1ccc(Oc3ccc(C4CC4)cc3)nc1)CC2 (centres undefined) |  |  |  |  | 12.5 | 19.2 | 15.7 | > 20
CCCCN(CCCC)c1ccc(Oc2ccc(C[N+]3(C)CCc4cc(OC)c(OCc5ccccc5)cc4C3)cn2)cc1 (centres undefined) |  |  |  |  | > 20 | 10 | 10.3 | 10.5
COc1cc2c(cc1OCc1ccccc1)C[N+](C)(Cc1ccc(Oc3cc(Cl)ccc3Oc3ccc(Cl)cc3Cl)nc1)CC2 (centres undefined) |  |  |  |  | 9.3 | 4.7 | 5.4 | 4.5
COc1cc2c(cc1OCc1ccccc1)C[N+](C)(Cc1ccc(Oc3ccc(/N=N/c4ccccc4)cc3)nc1)CC2 (centres undefined) |  |  |  |  | 13.3 | 13.1 | 5.5 | 11.6
COc1cc2c(cc1OCc1ccccc1)C[N+](C)(Cc1cnc3ccccc3c1)CC2 (centres undefined) | 6.8 | 13.9 | 8.29 | 7.43 |  |  |  | 

SMILES | inhibition at 40 µM (HepG2 [1]) [%] | inhibition at 40 µM (A-375 [2]) [%] | inhibition at 40 µM (HCT-116 [3]) [%] | inhibition at 40 µM (MDA-MB-231 [4]) [%] | IC50 (MDA-MB-231 [5]) [µM] | IC50 (HepG2 [6]) [µM] | IC50 (A-375 [7]) [µM] | IC50 (HCT-116 [8]) [µM]
COc1cc2c(cc1OCc1ccccc1)C[N+](C)(Cc1ccc(Oc3ccc(SC(F)(F)F)cc3)nc1)CC2 (centres undefined) |  |  |  |  | 15.3 | 14.6 | 11.6 | 13.4
COc1cc2c(cc1OCc1ccccc1)C[N+](C)(Cc1ccc(Br)nc1)CC2 (centres undefined) | 27.3 | 22.2 | 20.7 | 17.4 |  |  |  | 
COc1cc2c(cc1OCc1ccccc1)C[N+](C)(Cc1ccc(Oc3ccc(C45CC6CC(CC(C6)C4)C5)cc3)nc1)CC2 (centres undefined) |  |  |  |  | 4.6 | 4.2 | 12.4 | 2.5
COc1cc2c(cc1OCc1ccccc1)C[N+](C)(Cc1ccccn1)CC2 (centres undefined) | 18.9 | 13.7 | 11.6 | 9.61 |  |  |  | 
COc1cc2c(c(OC)c1OC)CC[N+](C)(Cc1ccc(Br)nc1)C2 (centres undefined) | 60.6 | 24.8 | 53.4 | 35.1 |  |  |  | 
COc1cc2c(cc1OCc1ccccc1)C[N+](C)(Cc1ccc(Br)cn1)CC2 (centres undefined) | 27.8 | 31.2 | 16 | 23.7 |  |  |  | 
COc1cc2c(cc1OCc1ccccc1)C[N+](C)(Cc1ccc(Oc3ccc(C4CCC(=O)CC4)cc3)nc1)CC2 (centres undefined) |  |  |  |  | 12.4 | > 20 | 17.9 | 18.7
COc1cc2c(cc1OCc1ccccc1)C[N+](C)(Cc1ccc3ccccc3n1)CC2 (centres undefined) | 7.43 | 13 | 3.2 | 2.75 |  |  |  | 
COc1cc2c(cc1OCc1ccccc1)C[N+](C)(Cc1ccc(Oc3ccc(OCc4ccccc4)cc3)nc1)CC2 (centres undefined) |  |  |  |  | 12.4 | 6.8 | 11.6 | 8.9
COc1cc2c(cc1O)C[N+](C)(Cc1ccc(Br)nc1)CC2 (centres undefined) | 15 | 12.3 | 34.5 | 34.4 |  |  |  | 
COc1cc2c(cc1OCc1ccccc1)C[N+](C)(Cc1ccc(Oc3cc(C(F)(F)F)ccc3F)nc1)CC2 (centres undefined) |  |  |  |  | 17.3 | 12.4 | 12.5 | 18.6
COc1cc2c(c(OC)c1OC)CCN(C)C2 | 9.18 | 22.3 | 18.2 | 52 |  |  |  | 
COc1cc2c(cc1OC)C[N+](C)(Cc1ccc(Br)nc1)CC2 (centres undefined) | 19.8 | 41.1 | 18.4 | 30.5 |  |  |  | 
COc1cc2c(cc1OCc1ccccc1)C[N+](C)(Cc1ccnc3ccccc13)CC2 (centres undefined) | 11.7 | 9.33 | 12.1 | 8.29 |  |  |  | 
COc1ccc2c(c1OC)C(=O)O[C@@H]2[C@H]1c2c(cc3c(c2OC)OCO3)CCN1C [NOSCAPINE] |  |  |  |  | 120 | 120 | 180 | 154
